# From publication PMC12024234, “Antioxidant, Anti-Inflammatory, and Oral Bioavailability of Novel Sulfonamide Derivatives of Gallic Acid” (Antioxidants, 2025)
# Several values for one entry are separate records, joined by “and”; a condition that tells them apart may be missing. Equal values may be shown once.
# Assays:
# [1] = Ferric reducing antioxidant power (FRAP) assay; conditions: compared to GA
# Method: The FRAP assay was conducted following an adapted procedure based on the method described by Benzie (1996). The FRAP reagent was prepared fresh and warmed to 25 °C before use. The reagent was made by combining 2.5 mL of a 10 mM TPTZ solution in 40 mM hydrochloric acid, 2.5 mL of a 20 mM FeCl3·6H2O solution, and 25 mL of a 0.3 M sodium acetate buffer adjusted to pH 3.6. For the assay, 100 μL of each sample was mixed with 3 mL of the freshly prepared FRAP reagent and incubated for 4 min. After incubation, the absorbance was recorded at 593 nm using a UV-VIS spectrophotometer, with methanol serving as the blank. A standard calibration curve was generated using ascorbic acid solutions at concentrations of 100, 200, 400, 800, and 1000 μM (R^2 = 0.998). The FRAP values were calculated as μM of ascorbic acid equivalents based on the standard curve. The results presented are the mean of three independent experiments.
# [2] = Oral bioavailability / pharmacokinetics in rats; format: in vivo, Sprague Dawley rats; conditions: for Cmax / AUC(0-inf) / AUC(0-t) / CL/F / half-life / MRT inf / Tmax: male, Sprague Dawley; for Cmax / AUC(0-inf) / AUC(0-t) / CL/F / half-life / MRT inf / Tmax / Vz: rat serum; for Cmax: 100 mg/kg (table: 100 mg dose); for AUC(0-inf) / AUC(0-t) / CL/F / half-life / MRT inf / Tmax / Vz / Distribution volume at the terminal phase (Vz) relative to GA: 100 mg/kg; for MRT inf: n = 6, read-out: MRT0–∞; for Tmax / Distribution volume at the terminal phase (Vz) relative to GA: rat; for Tmax: serum, po
# Method: Male Sprague Dawley rats, aged 7–9 weeks and weighing 220 ± 20 g on average, were used for bioavailability studies. The animals were housed in the Laboratory Animal Research Unit at the University of Petra Pharmaceutical Center under controlled conditions: a temperature of 23 ± 2 °C, humidity of 55–65%, and a 12 h light/dark cycle. Prior to the experiments, the rats underwent a 10-day acclimatization period with free access to standard food and water. All procedures complied with the University of Petra’s animal use guidelines, which adhere to the standards of the Federation of European Laboratory Animal Sciences Association (FELASA). The rats were divided into three groups (n = 6 per group) and administered suspensions of GA, 3,4,5-TMBS, or 3,4,5-THBS prepared in 5% carboxymethylcellulose. Each compound was administered orally at a dose of 100 mg/kg, based on previous studies. Blood samples were collected from the retro-orbital plexus at 0.5, 1, 2, 3, 4, 6, 10, and 24 h post-administration. The samples were centrifuged at 5000 rpm for 10 min, and the serum was mixed with acetonitrile in a 1:3 ratio. After a second centrifugation at 5000 rpm for 15 min, the supernatant was collected for high-performance liquid chromatography (HPLC) analysis. HPLC analysis was conducted using a Shimadzu Class VP series system equipped with an LC-10AT VP pump, an SIL-10AD VP autosampler, and an SCL-10AVP system (Shimadzu, Kyoto, Japan). A C18 column (25 cm × 4.6 mm, 5 μm) was used, with a photodiode array detector set to a wavelength range of 200–400 nm. The mobile phase for TMBS and THBS consisted of a 50:50 (v/v) mixture of deionized water and acetonitrile containing 0.1% trifluoroacetic acid, flowing at 1 mL/min. For GA, the mobile phase was a 70:30 mixture of methanol and a water/sulfuric acid solution (100:2), also at a flow rate of 1 mL/min. The retention times for THBS and TMBS were 2.39 and 3.47 min, respectively, while GA eluted at 2.4 min, all detected at 254 nm. Results were analyzed using Lab Solution Software LC (version 5.3) and represent the average of three measurements.
# CYP2D6 [3] = molecular target: T1, CYP2D6 (Homo sapiens, UniProt P10635); experiment: Metabolism by cytochrome P450 2D6 (CypExpress), HPLC; format: in vitro ADME
# T1 construct: purchased Sigma Aldrich C4982
# [4] = DPPH assay on supernatant after CYP2D6 metabolism
# Method: The antioxidant properties of the compounds under study were examined using the 2,2-Diphenyl-1-picrylhydrazyl (DPPH) assay, following a well-established protocol. A DPPH solution was prepared at a concentration of 0.1 mM in methanol. […] To ensure proper reaction, the mixtures were kept in the dark and incubated at room temperature for 30 min. After incubation, the absorbance of each sample was measured at 517 nm using a UV-VIS spectrophotometer. Gallic acid was used as the reference standard, and methanol served as the blank control.
# To further assess the scavenging activity of 3,4,5-TMBS metabolites, an antioxidant assay was conducted after 3 and 4 h following the metabolism. After both 3 h and 4 h reaction periods, the enzyme was separated, and the resulting supernatant was utilized for the DPPH assay. Findings regarding the antioxidant activity of 3,4,5-TMBS, post-metabolism, at these time points, in comparison to GA and 3,4,5-THBS at the same concentration, are illustrated in Figure 9.
# CYP2D6 [5] = molecular target: T1, CYP2D6; experiment: Metabolism by cytochrome P450 2D6 (CypExpress), HPLC; format: in vitro ADME; conditions: 4 h
# Method: The enzymatic activity of cytochrome P450 2D6 (CYP2D6) was evaluated following the CypExpress protocol (C4982, Sigma Aldrich, Darmstadt, Germany). The reaction buffer consisted of 5 mM glucose-6-phosphate (G6P), 2 mM nicotinamide adenine dinucleotide phosphate (NADP+), and 3,4,5-TMBS prepared in PBS at concentrations of 1000 and 1500 µM. Diltiazem was used as a positive control. The reaction was initiated by adding CYP2D6, and the mixture was vortexed for 5 min. The samples were then incubated at 37 °C with gentle shaking at 100 rpm for 4 h. The reaction was terminated by adding acetonitrile, followed by centrifugation at 800 rpm for 10 min. The supernatant was collected and analyzed using HPLC.
# [6] = molecular target: Bovine Serum Albumin (BSA) (Bos taurus, UniProt P02769); experiment: Protein denaturation assay; format: biochemical; conditions: at 100 nM and higher concentrations (range 1–1000 nM)
# Method: The anti-inflammatory potential of the compounds was evaluated using a protein denaturation assay, a well-established method to assess the capacity of test substances to inhibit protein denaturation, a key marker of inflammation. […] After heating, the samples were allowed to cool to room temperature, and the turbidity of the solutions, indicative of protein precipitation, was measured spectrophotometrically at 660 nm. A reduction in turbidity corresponds to the inhibition of protein denaturation, reflecting the anti-inflammatory activity of the tested compounds.
# T1 sequence (P10635 whole entry): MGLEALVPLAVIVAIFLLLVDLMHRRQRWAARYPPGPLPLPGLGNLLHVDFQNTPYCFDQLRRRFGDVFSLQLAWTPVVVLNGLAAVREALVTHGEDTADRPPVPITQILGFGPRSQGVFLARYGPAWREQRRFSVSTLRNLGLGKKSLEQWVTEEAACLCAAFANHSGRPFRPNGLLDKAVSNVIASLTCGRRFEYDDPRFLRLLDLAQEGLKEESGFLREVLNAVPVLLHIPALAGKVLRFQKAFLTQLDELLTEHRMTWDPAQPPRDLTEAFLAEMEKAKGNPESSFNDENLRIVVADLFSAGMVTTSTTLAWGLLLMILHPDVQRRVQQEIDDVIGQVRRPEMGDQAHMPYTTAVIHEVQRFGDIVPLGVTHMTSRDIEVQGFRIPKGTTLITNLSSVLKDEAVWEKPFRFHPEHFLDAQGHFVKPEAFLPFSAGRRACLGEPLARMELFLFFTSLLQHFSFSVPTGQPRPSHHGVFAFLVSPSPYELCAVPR
# Chain of Bovine Serum Albumin (BSA) (P02769 25-607): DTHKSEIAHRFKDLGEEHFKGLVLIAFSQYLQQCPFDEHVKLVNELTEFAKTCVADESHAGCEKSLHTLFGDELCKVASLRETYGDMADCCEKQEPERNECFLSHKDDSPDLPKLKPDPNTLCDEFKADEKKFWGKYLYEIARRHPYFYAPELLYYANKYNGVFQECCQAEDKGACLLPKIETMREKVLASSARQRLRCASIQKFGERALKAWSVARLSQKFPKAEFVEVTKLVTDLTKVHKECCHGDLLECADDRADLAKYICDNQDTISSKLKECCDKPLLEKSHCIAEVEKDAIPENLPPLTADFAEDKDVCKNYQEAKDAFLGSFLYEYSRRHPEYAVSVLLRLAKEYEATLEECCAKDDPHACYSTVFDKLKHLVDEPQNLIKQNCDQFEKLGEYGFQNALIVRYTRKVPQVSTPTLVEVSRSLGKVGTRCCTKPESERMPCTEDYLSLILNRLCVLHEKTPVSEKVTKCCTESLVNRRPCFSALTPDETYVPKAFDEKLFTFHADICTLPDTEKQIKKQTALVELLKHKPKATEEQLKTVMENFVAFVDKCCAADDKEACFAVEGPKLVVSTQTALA
Cmax ([2]; n = 6) [ng/mL],AUC(0-inf) ([2]; n = 6) [ng·h/mL],AUC(0-t) ([2]; n = 6) [ng·h/mL],CL/F ([2]; n = 6) [mL/min/kg],half-life ([2]; n = 6) [h],MRT inf [2] [h],Tmax [2] [h],Tmax ([2]; n = 6) [h],Vz ([2]; n = 6),SMILES,FRAP value (antioxidant capacity) [1],Distribution volume at the terminal phase (Vz) relative to GA [2],further results
9560 ± 1900,24200 ± 7370,24200 ± 270,73.2,2.1 ± 1.3,2.69 ± 0.36,2,2 ± 0.1,7.39 ± 2.16 (mg)/(μg/mL),"NS(=O)(=O)c1cc(O)c(O)c(O)c1 [3,4,5-THBS, 3,4,5-trihydroxybenzenesulfonamide]",lower antioxidant activity compared to GA,approximately ten-fold lower than that of GA,
25800 ± 6030,386000 ± 43800,173000 ± 49300,6.17,7.17 ± 1.62,11.9 ± 0.61,2.87,2.88 ± 1.31,3.20 ± 0.55 (mg)/(μg/mL),"COc1cc(S(N)(=O)=O)cc(OC)c1OC [3,4,5-TMBS, 3,4,5-trimethoxybenzenesulfonamide]",lower antioxidant activity compared to GA,approximately ten-fold lower than that of GA,"Metabolism by CYP2D6 (concentration) (CYP2D6 [3]; 1000 µM, 1 h): 754 ± 35.5 µM; Metabolism by CYP2D6 (concentration) (CYP2D6 [3]; 1000 µM, 3 h): 860.62 ± 0.71 µM; Metabolism by CYP2D6 (concentration) (CYP2D6 [3]; 1500 µM, 1 h): 984 ± 161 µM; Metabolism by CYP2D6 (concentration) (CYP2D6 [3]; 1500 µM, 3 h): 1241 ± 12.2 µM; Percentage metabolized by CYP2D6 (CYP2D6 [3]; 1500 µM, one-hour time point): 65% and 65.5%; DPPH scavenging activity after CYP2D6 metabolism ([4]; 1000 µM, after four hours): 45%; DPPH scavenging activity after CYP2D6 metabolism ([4]; 1000 µM, after three hours): 35%; DPPH scavenging activity after CYP2D6 metabolism ([4]; 2000 µM, after three and four hours): up to 61%; Metabolism by CYP2D6 (concentration) (CYP2D6 [5]; 1000 µM): 833 ± 54.9 µM; Metabolism by CYP2D6 (concentration) (CYP2D6 [5]; 1500 µM): 1248 ± 5.02 µM; Anti-inflammatory activity (inhibition of protein denaturation) compared to ibuprofen [6]: significant increase in anti-inflammatory activity"
